Assay results reported in ChEMBL document CHEMBL1155173, “Modulation of the cellular accumulation and intracellular activity of daptomycin towards phagocytized Staphylococcus aureus by the P-glycoprotein (MDR1) efflux transporter in human THP-1 macrophages and madin-darby canine kidney cells” (Antimicrob Agents Chemother, 2007).
Values after ≈ are worked out from the molar mass of the structure shown. Active and inactive are the calls of the source. The rule behind the calls is not given here.

Experiments:
Staphylococcus aureus [1] = experiment: Antibacterial activity against methicillin-sensitive Staphylococcus aureus ATCC 25923 phagocytized in human THP1 cells after 24 hrs in presence of 1 mg/liter daptomycin; type: functional, organism-based; settings: THP-1
THP-1 [2] = experiment: Decrease in intracellular calcium concentration in human THP1 cells at 100 uM after 60 mins; type: functional; set-up: scale not given: the % may be the effect or the level left
Staphylococcus aureus [3] = experiment: Antibacterial activity against methicillin-sensitive Staphylococcus aureus ATCC 25923 phagocytized in human THP1 cells assessed as concentration resulting in no apparent bacterial growth after 24 hrs in presence of 100 uM verapamil; type: functional, THP-1
Staphylococcus aureus [4] = experiment: Antibacterial activity against methicillin-sensitive Staphylococcus aureus ATCC 25923 phagocytized in wild type MDCK cells after 24 hrs in presence of 100 uM verapamil; type: functional, organism-based; settings: ATCC 25923, MDCK
Staphylococcus aureus [5] = experiment: Antibacterial activity against methicillin-sensitive Staphylococcus aureus ATCC 25923 phagocytized in human THP1 cells after 24 hrs in presence of 0.5 uM elacridar; type: functional, organism-based; settings: ATCC 25923, THP-1, 24 h
Staphylococcus aureus [6] = experiment: Antibacterial activity against methicillin-sensitive Staphylococcus aureus ATCC 25923 phagocytized in MDCK cells over expressing human […] at 1 mg/liter after 24 hrs; type: functional, organism-based; settings: ATCC 25923, MDCK
THP-1 [7] = experiment: Cellular uptake in methicillin-sensitive Staphylococcus aureus ATCC 25923 phagocytized in human THP1 cells assessed as apparent cellular to extracellular concentration ratio at 250 mg/liter after 24 hrs by fluorimetry in presence of 100 uM verapamil; type: ADME, cell-based; settings: thp-1, 24 h
Staphylococcus aureus [8] = experiment: Antibacterial activity against methicillin-sensitive Staphylococcus aureus ATCC 25923 phagocytized in MDCK cells over expressing human […] assessed as concentration resulting in no apparent bacterial growth after 24 hrs in presence of 100 uM verapamil; type: functional
Staphylococcus aureus [9] = experiment: Antibacterial activity against methicillin-sensitive Staphylococcus aureus ATCC 25923 phagocytized in human THP1 cells assessed as decrease in CFU at 1 mg/liter after 24 hrs in presence of 100 uM verapamil; type: functional, THP-1
Staphylococcus aureus [10] = experiment: Antibacterial activity against methicillin-sensitive Staphylococcus aureus ATCC 25923 phagocytized in wild type MDCK cells assessed as decrease in CFU at 1 mg/liter after 24 hrs in presence of 100 uM verapamil; type: functional
Staphylococcus aureus [11] = experiment: Antibacterial activity against methicillin-sensitive Staphylococcus aureus ATCC 25923 phagocytized in wild type MDCK cells after 24 hrs; type: functional, organism-based; settings: ATCC 25923, MDCK
Staphylococcus aureus [12] = experiment: Antibacterial activity against methicillin-sensitive Staphylococcus aureus ATCC 25923 phagocytized in MDCK cells over expressing human […] after 24 hrs in presence of 100 uM verapamil; type: functional, organism-based; settings: ATCC 25923, MDCK
THP-1 [13] = experiment: Cellular uptake in methicillin-sensitive Staphylococcus aureus ATCC 25923 phagocytized in human THP1 cells assessed as apparent cellular to extracellular concentration ratio at 250 mg/liter after 24 hrs by fluorimetry in presence of 1 uM ouabain; type: ADME, cell-based; settings: thp-1, 24 h
MDCK [14] = experiment: Cellular uptake in methicillin-sensitive Staphylococcus aureus ATCC 25923 phagocytized in MDCK cells over expressing human MDR1 cells assessed as apparent cellular to extracellular concentration ratio at 250 mg/liter after 24 hrs by fluorimetry in presence of 250 uM gemfibrozil; type: ADME, cell-based, Canis lupus familiaris; settings: dog
Staphylococcus aureus [15] = experiment: Antibacterial activity against methicillin-sensitive Staphylococcus aureus ATCC 25923 phagocytized in MDCK cells over expressing human […] assessed as decrease in CFU at 1 mg/liter after 24 hrs in presence of 100 uM verapamil; type: functional
MDCK [16] = experiment: Cellular uptake in methicillin-sensitive Staphylococcus aureus ATCC 25923 phagocytized in wild type MDCK cells assessed as apparent cellular to extracellular concentration ratio at 250 mg/liter after 24 hrs by fluorimetry in presence of 100 uM verapamil; type: ADME, cell-based, Canis lupus familiaris; settings: dog
MDCK [17] = experiment: Cellular uptake in methicillin-sensitive Staphylococcus aureus ATCC 25923 phagocytized in wild type MDCK cells assessed as apparent cellular to extracellular concentration ratio at 250 mg/liter after 24 hrs by fluorimetry in presence of 1 uM ouabain; type: ADME, cell-based, Canis lupus familiaris; settings: dog
MDCK [18] = experiment: Cellular uptake in methicillin-sensitive Staphylococcus aureus ATCC 25923 phagocytized in MDCK cells over expressing human MDR1 cells assessed as apparent cellular to extracellular concentration ratio at 250 mg/liter after 24 hrs by fluorimetry in presence of 1 uM ouabain; type: ADME, cell-based, Canis lupus familiaris; settings: dog
Staphylococcus aureus [19] = experiment: Antibacterial activity against methicillin-sensitive Staphylococcus aureus ATCC 25923 phagocytized in wild type MDCK cells assessed as decrease in CFU at 1 mg/liter after 24 hrs; type: functional
MDCK [20] = experiment: Cellular uptake in methicillin-sensitive Staphylococcus aureus ATCC 25923 phagocytized in MDCK cells over expressing human MDR1 assessed as apparent cellular to extracellular concentration ratio at 250 mg/liter after 24 hrs by fluorimetry; type: ADME, cell-based, Canis lupus familiaris; settings: dog
Staphylococcus aureus [21] = experiment: Antibacterial activity against methicillin-sensitive Staphylococcus aureus ATCC 25923 phagocytized in MDCK cells over expressing human […] assessed as concentration resulting in no apparent bacterial growth after 24 hrs; type: functional
THP-1 [22] = experiment: Cellular uptake in methicillin-sensitive Staphylococcus aureus ATCC 25923 phagocytized in human THP1 cells assessed as apparent cellular to extracellular concentration ratio at 250 mg/liter after 24 hrs by fluorimetry in presence of 250 uM gemfibrozil; type: ADME, cell-based; settings: thp-1, 24 h
MDCK [23] = experiment: Cellular uptake in methicillin-sensitive Staphylococcus aureus ATCC 25923 phagocytized in MDCK cells over expressing human MDR1 cells assessed as apparent cellular to extracellular concentration ratio at 250 mg/liter after 24 hrs by fluorimetry in presence of 100 uM verapamil; type: ADME, cell-based, Canis lupus familiaris; settings: dog
Staphylococcus aureus [24] = experiment: Antibacterial activity against methicillin-sensitive Staphylococcus aureus ATCC 25923 phagocytized in human THP1 cells assessed as decrease in CFU at 1 mg/liter after 24 hrs in presence of 0.5 uM elacridar; type: functional, THP-1
Staphylococcus aureus [25] = experiment: Antibacterial activity against methicillin-sensitive Staphylococcus aureus ATCC 25923 phagocytized in human THP1 cells assessed as concentration resulting in no apparent bacterial growth after 24 hrs in presence of 0.5 uM elacridar; type: functional, THP-1
MDCK [26] = experiment: Cellular uptake in methicillin-sensitive Staphylococcus aureus ATCC 25923 phagocytized in wild type MDCK cells assessed as apparent cellular to extracellular concentration ratio at 250 mg/liter after 24 hrs by fluorimetry; type: ADME, cell-based, Canis lupus familiaris; settings: dog
Staphylococcus aureus [27] = experiment: Antibacterial activity against methicillin-sensitive Staphylococcus aureus ATCC 25923 phagocytized in human THP1 cells after 24 hrs; type: functional, organism-based; settings: ATCC 25923, THP-1, 24 h
Staphylococcus aureus [28] = experiment: Antibacterial activity against methicillin-sensitive Staphylococcus aureus ATCC 25923 phagocytized in human THP1 cells assessed as concentration resulting in no apparent bacterial growth after 24 hrs; type: functional, THP-1
Staphylococcus aureus [29] = experiment: Antibacterial activity against methicillin-sensitive Staphylococcus aureus ATCC 25923 phagocytized in human THP1 cells after 24 hrs in presence of 100 uM verapamil; type: functional, organism-based; settings: ATCC 25923, THP-1, 24 h
Staphylococcus aureus [30] = experiment: Antibacterial activity against methicillin-sensitive Staphylococcus aureus ATCC 25923 phagocytized in wild type MDCK cells assessed as concentration resulting in no apparent bacterial growth after 24 hrs in presence of 100 uM verapamil; type: functional
Staphylococcus aureus [31] = experiment: Antibacterial activity against methicillin-sensitive Staphylococcus aureus ATCC 25923 phagocytized in wild type MDCK cells assessed as concentration resulting in no apparent bacterial growth after 24 hrs; type: functional
MDCK [32] = experiment: Cellular uptake in methicillin-sensitive Staphylococcus aureus ATCC 25923 phagocytized in wild type MDCK cells assessed as apparent cellular to extracellular concentration ratio at 250 mg/liter after 24 hrs by fluorimetry in presence of 250 uM gemfibrozil; type: ADME, cell-based, Canis lupus familiaris; settings: dog
THP-1 [33] = experiment: Cellular uptake in methicillin-sensitive Staphylococcus aureus ATCC 25923 phagocytized in human THP1 cells assessed as apparent cellular to extracellular concentration ratio at 250 mg/liter after 24 hrs by fluorimetry; type: ADME, cell-based; settings: thp-1, 24 h
Staphylococcus aureus [34] = experiment: Antibacterial activity against methicillin-sensitive Staphylococcus aureus ATCC 25923 phagocytized in human THP1 cells assessed as decrease in CFU at 1 mg/liter after 24 hrs; type: functional, THP-1
Staphylococcus aureus [35] = experiment: Antibacterial activity against methicillin-sensitive Staphylococcus aureus ATCC 25923 phagocytized in MDCK cells over expressing human […] assessed as decrease in CFU at 1 mg/liter after 24 hrs; type: functional
THP-1 [36] = experiment: Cellular uptake in methicillin-sensitive Staphylococcus aureus ATCC 25923 phagocytized in human THP1 cells assessed as apparent cellular to extracellular concentration ratio at 250 mg/liter after 24 hrs under 2-deoxyglucose-induced ATP depleted condition by fluorimetry; type: ADME, cell-based; settings: thp-1, 24 h
THP-1 [37] = experiment: Cellular uptake in methicillin-sensitive Staphylococcus aureus ATCC 25923 phagocytized in human mdr1 siRNAs- induced MDR1 deficient human THP1 cells assessed as increase accumulation at 250 mg/liter after 24 hrs by […]; type: ADME, cell-based; settings: thp-1, 24 h
THP-1 [38] = experiment: Decrease in intracellular calcium concentration in human THP1 cells at 250 uM after 60 mins; type: functional, cell-based
THP-1 [39] = experiment: Decrease in intracellular calcium concentration in human THP1 cells at 50 uM after 60 mins; type: functional; set-up: scale not given: the % may be the effect or the level left

Compound: COc1ccc(CCN(C)CCCC(C#N)(c2ccc(OC)c(OC)c2)C(C)C)cc1OC (stereo unspecified) [VERAPAMIL]
- Activity (Staphylococcus aureus [1]): Dose-dependent effect
- Activity (THP-1 [2]): 25%

Compound: CCCCCCCCCC(=O)N[C@@H](Cc1c[nH]c2ccccc12)C(=O)N[C@H](CC(N)=O)C(=O)N[C@@H](CC(=O)O)C(=O)N[C@@H]1C(=O)NCC(=O)N[C@@H](CCCN)C(=O)N[C@@H](CC(=O)O)C(=O)N[C@H](C)C(=O)N[C@@H](CC(=O)O)C(=O)NCC(=O)N[C@H](CO)C(=O)N[C@@H]([C@H](C)CC(=O)O)C(=O)N[C@@H](CC(=O)c2ccccc2N)C(=O)O[C@@H]1C
- Activity (Staphylococcus aureus [3]): 0.4 mg/L
- EC50 (Staphylococcus aureus [4]): 0.18 µg/mL
- EC50 (Staphylococcus aureus [5]): 0.27 µg/mL
- EC50 (Staphylococcus aureus [6]): 2.67 µg/mL (≈ 1.65 µM)
- Ratio (THP-1 [7]): 0.75
- Activity (Staphylococcus aureus [8]): 0.6 mg/L
- log10cfu (Staphylococcus aureus [9]): -1.82
- log10cfu (Staphylococcus aureus [10]): -2.01
- EC50 (Staphylococcus aureus [11]): 0.62 µg/mL (≈ 0.383 µM)
- EC50 (Staphylococcus aureus [12]): 0.7 µg/mL
- Ratio (THP-1 [13]): 0.12
- Ratio (MDCK [14]): 0.07
- log10cfu (Staphylococcus aureus [15]): -1.78
- Ratio (MDCK [16]): 0.83
- Ratio (MDCK [17]): 0.04
- Ratio (MDCK [18]): 0.03
- Activity (Staphylococcus aureus [1]): Dose-dependent effect
- log10cfu (Staphylococcus aureus [19]): -1.7
- Ratio (MDCK [20]): 0.08
- Activity (Staphylococcus aureus [21]): 2.1 mg/L
- Ratio (THP-1 [22]): 0.18
- Ratio (MDCK [23]): 0.3
- log10cfu (Staphylococcus aureus [24]): -1.67
- Activity (Staphylococcus aureus [25]): 0.4 mg/L
- Ratio (MDCK [26]): 0.23
- EC50 (Staphylococcus aureus [27]): 1.14 µg/mL (≈ 0.703 µM)
- Activity (Staphylococcus aureus [28]): 1.3 mg/L
- EC50 (Staphylococcus aureus [29]): 0.31 µg/mL
- Activity (Staphylococcus aureus [30]): 0.2 mg/L
- Activity (Staphylococcus aureus [31]): 0.6 mg/L
- Ratio (MDCK [32]): 0.18
- Ratio (THP-1 [33]): 0.21
- log10cfu (Staphylococcus aureus [34]): -1.6
- log10cfu (Staphylococcus aureus [35]): -1.77
- Ratio (THP-1 [36]): 0.82

Compound: C[C@@H]1O[C@@H](O[C@H]2C[C@@H](O)[C@]3(CO)[C@H]4[C@H](O)C[C@]5(C)[C@@H](C6=CC(=O)OC6)CC[C@]5(O)[C@@H]4CC[C@]3(O)C2)[C@H](O)[C@H](O)[C@H]1O [OUABAIN]
- Activity (THP-1 [37]): Active

Compound: COc1cc2c(cc1OC)CN(CCc1ccc(NC(=O)c3cccc4c(=O)c5cccc(OC)c5[nH]c34)cc1)CC2
- Activity (Staphylococcus aureus [1]): Dose-dependent effect

Compound: Cc1ccc(C)c(OCCCC(C)(C)C(=O)O)c1
- Activity (THP-1 [38]): inactive

Compound: C[C@H](CCC(=O)[O-])C[C@H](C)C[C@H](C)C(=O)/C=C(\[O-])[C@H](C)C[C@H](C)C/C=C/[C@@H](C)[C@@H](O)[C@@H](C)[C@@H](O)C[C@@H]1CC[C@@](C)([C@H]2CC[C@@](C)([C@@H](C)O)O2)O1.[Ca+2] [IONOMYCIN CALCIUM]
- Activity (THP-1 [39]): 75%
